{
  "source": "PubChem BioAssay AID1963849",
  "about": "(Molecular Pharmacology Branch, DTP, NCI, 2024)",
  "tested_on": "299254-011-R-J1-PDC complex spheroid viability",
  "test": "Anticancer human tumor 299254-011-R-J1-PDC patient-derived melanoma cell line growth inhibition [POLQ]",
  "settings": "for IC50: curve of first compound; for viability, T/C: stronger effect = lower value",
  "description": "Multicellular complex tumor spheroid response to Polymerase (POL) inhibitors (novobiocin, ART-558, RP6685) in combination with a variety of drugs and investigational agents in selected tumor cell lines\nThe POL inhibitors (novobiocin, ART-558, and RP6685) were evaluated both individually and in combination with standard of care and investigational anticancer small molecules within a complex spheroid model of solid tumors. . Complex spheroids include a stromal component modeled by human endothelial cells (HUVEC) and fibroblasts modeled by human mesenchymal stem cells (MSCs). The concentration ranges selected for each drug and investigational agent were based upon clinically achievable concentrations if the clinical Cmax of the agent was known.\nCompounds. The drugs and investigational agents: novobiocin (NSC847541), ART-558 (NSC835418), RP-6685 (NSC848927), peposertib (NSC802822), ceralasertib (NSC780249), elimusertib (NSC800525), camonsertib (NSC841442), AZD-1390 (NSC803789), olaparib (NSC753686), talazoparib (NSC767125), rucaparib (NSC756644), sotorasib (NSC818433), MRTX-1133 (NSC836407), SN-38 (NSC673596), topotecan (NSC609699), epotoside (NSC141540), doxorubicin (NSC123127), gemcitabine (NSC613327), 5-fluorouracil (NSC19893), paclitaxel (NSC125973), vemurafenib (NSC761431), MSA-2 (NSC828583), SN-011 (NSC837082), adavosertib (NSC754352), prexasertib (NSC758257), carboplatin (NSC241240) and oxaliplatin (NSC266046), were obtained from the National Cancer Institute (NCI) Developmental Therapeutics Program Chemical Repository (21). The FDA-approved anticancer drug set is available from the Developmental Therapeutics Program at https://dtp.cancer.gov/organization/dscb/obtaining/. […] The stock solutions were prepared in dimethyl sulfoxide (DMSO, Sigma-Aldrich, St. Louis, MO, cat. D2650), except for the platinum compounds which were prepared in saline (Quality Biological, Gaithersburg, MD, cat. 114-055-101), at 800-fold the tested concentration and stored at -70 degrees C prior to their use. All drugs and investigational agents were tested over a range starting from a high concentration at or near the clinical Cmax and decreasing in half-log increments. If the clinical Cmax for an agent had not been determined, the highest concentration tested was 10 microM, except for SN-38, which was tested at a high concentration of 1 microM.\nCell Culture. All cells were maintained in an incubator at 37 degrees C and 5% CO2 with 95% humidity. The PDC lines were cultured according to standard operating procedures established by the NCI PDMR (https://pdmr.cancer.gov). Table 3 of the manuscript, lists the cell lines along with the number of the three cell types plated to form the mct-spheroids and media for tumor cell growth. After thawing, all PDC lines, except 997537-175-T-J1-PDC and 415267-285-R-J2-PDC, were cultured in Matrigel-coated flasks prepared with a working solution of 1X Ham's F-12 nutrient mix, without supplementation (Thermo Fisher Scientific, cat. 11765054), 100 U/mL penicillin-streptomycin (Thermo Fisher Scientific, cat. 15140122), and 2.5% Matrigel (Corning Inc., Corning, NY, cat. 354248) for the first three passages. The two PDC lines 997537-175-T-J1-PDC and 415267-285-R-J2-PDC were cultured on uncoated flasks. The 857933-349-R-J2-PDC line was cultured in 6C/Colon 1B media containing advanced DMEM/F-12 (Thermo Fisher Scientific, cat. 12634028), 10 mM HEPES (Thermo Fisher Scientific, cat. 15630080), 1X GlutaMAX supplement (Thermo Fisher Scientific, cat. 35050061), 0.1 mg/mL primocin (InvivoGen, San Diego, CA, cat. ant-pm-2), 10% defined fetal bovine serum, heat inactivated (HyClone Laboratories Inc., Logan, UT, cat. SH30070.03HI), 50% L-WRN conditioned media (ATCC, cat. CRL-3276), 1.25 mM N-Acetyl-L-cysteine (Sigma-Aldrich, cat. A9165), 10 mM nicotinamide (Sigma-Aldrich, cat. N0636), 1X B-27 supplement (Thermo Fisher Scientific, cat. 17504044), 1X N-2 supplement (Thermo Fisher Scientific, cat. […]",
  "data": [
    {"molecule": "CCc1c2c(nc3ccc(O)cc13)-c1cc3c(c(=O)n1C2)COC(=O)[C@]3(O)CC", "note": "+ COC1C(OC(N)=O)C(O)C(Oc2ccc3c(O)c(NC(=O)c4ccc(O)c(CC=C(C)C)c4)c(=O)oc3c2C)OC1(C)C;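 note: spheroids exposed to drugs for one week before measurement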;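 for viability, T/C: percent viability relative to DMSO vehicle control taken as 100%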", "values": [
      {"measurement": "IC50", "setting": "second compound 0.0316 µM", "value": "> 1000", "unit": "nM"},
      {"measurement": "IC50", "setting": "second compound 0.1 µM", "value": "> 1000", "unit": "nM"},
      {"measurement": "IC50", "setting": "second compound 0.316 µM", "value": "> 1000", "unit": "nM"},
      {"measurement": "IC50", "setting": "second compound 1 µM", "value": "> 1000", "unit": "nM"},
      {"measurement": "IC50", "setting": "second compound 3.16 µM", "value": "> 1000", "unit": "nM"},
      {"measurement": "IC50", "setting": "second compound 10 µM", "value": "> 1000", "unit": "nM"},
      {"measurement": "viability, T/C", "setting": "second compound 0.0316 µM, first compound 0.00316 µM", "value": 109, "unit": "%"},
      {"measurement": "viability, T/C", "setting": "second compound 0.0316 µM, first compound 0.01 µM", "value": 77.5, "unit": "%"},
      {"measurement": "viability, T/C", "setting": "second compound 0.0316 µM, first compound 0.0316 µM", "value": 69.4, "unit": "%"},
      {"measurement": "viability, T/C", "setting": "second compound 0.0316 µM, first compound 0.1 µM", "value": 65.4, "unit": "%"},
      {"measurement": "viability, T/C", "setting": "second compound 0.0316 µM, first compound 0.316 µM", "value": 70.4, "unit": "%"},
      {"measurement": "viability, T/C", "setting": "second compound 0.0316 µM, first compound 1 µM", "value": 48.9, "unit": "%"},
      {"measurement": "viability, T/C", "setting": "second compound 0.1 µM, first compound 0.00316 µM", "value": 114, "unit": "%"},
      {"measurement": "viability, T/C", "setting": "second compound 0.1 µM, first compound 0.01 µM", "value": 91.8, "unit": "%"},
      {"measurement": "viability, T/C", "setting": "second compound 0.1 µM, first compound 0.0316 µM", "value": 64.3, "unit": "%"},
      {"measurement": "viability, T/C", "setting": "second compound 0.1 µM, first compound 0.1 µM", "value": 64.5, "unit": "%"},
      {"measurement": "viability, T/C", "setting": "second compound 0.1 µM, first compound 0.316 µM", "value": 66.3, "unit": "%"},
      {"measurement": "viability, T/C", "setting": "second compound 0.1 µM, first compound 1 µM", "value": 57.8, "unit": "%"},
      {"measurement": "viability, T/C", "setting": "second compound 0.316 µM, first compound 0.00316 µM", "value": 91.8, "unit": "%"},
      {"measurement": "viability, T/C", "setting": "second compound 0.316 µM, first compound 0.01 µM", "value": 87.1, "unit": "%"},
      {"measurement": "viability, T/C", "setting": "second compound 0.316 µM, first compound 0.0316 µM", "value": 77.2, "unit": "%"},
      {"measurement": "viability, T/C", "setting": "second compound 0.316 µM, first compound 0.1 µM", "value": 64.8, "unit": "%"},
      {"measurement": "viability, T/C", "setting": "second compound 0.316 µM, first compound 0.316 µM", "value": 61.5, "unit": "%"},
      {"measurement": "viability, T/C", "setting": "second compound 0.316 µM, first compound 1 µM", "value": 56.2, "unit": "%"},
      {"measurement": "viability, T/C", "setting": "second compound 1 µM, first compound 0.00316 µM", "value": 112, "unit": "%"},
      {"measurement": "viability, T/C", "setting": "second compound 1 µM, first compound 0.01 µM", "value": 92.1, "unit": "%"},
      {"measurement": "viability, T/C", "setting": "second compound 1 µM, first compound 0.0316 µM", "value": 77.9, "unit": "%"},
      {"measurement": "viability, T/C", "setting": "second compound 1 µM, first compound 0.1 µM", "value": 62.5, "unit": "%"},
      {"measurement": "viability, T/C", "setting": "second compound 1 µM, first compound 0.316 µM", "value": 64, "unit": "%"},
      {"measurement": "viability, T/C", "setting": "second compound 1 µM, first compound 1 µM", "value": 59.4, "unit": "%"},
      {"measurement": "viability, T/C", "setting": "second compound 3.16 µM, first compound 0.00316 µM", "value": 93.9, "unit": "%"},
      {"measurement": "viability, T/C", "setting": "second compound 3.16 µM, first compound 0.01 µM", "value": 77.5, "unit": "%"},
      {"measurement": "viability, T/C", "setting": "second compound 3.16 µM, first compound 0.0316 µM", "value": 68.8, "unit": "%"},
      {"measurement": "viability, T/C", "setting": "second compound 3.16 µM, first compound 0.1 µM", "value": 69.4, "unit": "%"},
      {"measurement": "viability, T/C", "setting": "second compound 3.16 µM, first compound 0.316 µM", "value": 63, "unit": "%"},
      {"measurement": "viability, T/C", "setting": "second compound 3.16 µM, first compound 1 µM", "value": 56.6, "unit": "%"},
      {"measurement": "viability, T/C", "setting": "second compound 10 µM, first compound 0.00316 µM", "value": 99.2, "unit": "%"},
      {"measurement": "viability, T/C", "setting": "second compound 10 µM, first compound 0.01 µM", "value": 89.3, "unit": "%"},
      {"measurement": "viability, T/C", "setting": "second compound 10 µM, first compound 0.0316 µM", "value": 71.7, "unit": "%"},
      {"measurement": "viability, T/C", "setting": "second compound 10 µM, first compound 0.1 µM", "value": 60.9, "unit": "%"},
      {"measurement": "viability, T/C", "setting": "second compound 10 µM, first compound 0.316 µM", "value": 63.6, "unit": "%"},
      {"measurement": "viability, T/C", "setting": "second compound 10 µM, first compound 1 µM", "value": 48.8, "unit": "%"}
    ]}
  ]
}
